Measured values as given in patent publication US5595883A, “Method of diagnosing alzheimer's disease by measuring acetylcholinesterase activity in ocular fluid” (priority 1990, dated 1997).

Tested on: AChE
Experiment: Cholinesterase activity of human ocular fluid (micro Ellman assay, acetylthiocholine substrate), inhibition by BW 284c51
Type: biochemical
Conditions: BW 284c51 1.5 μM, acetylthiocholine 1.0 mM, pH 7.0, 25° C.
Experimental: Cholinesterase activities were measured by a microversion of the method of Ellman et al, (1961) supra, using microtitre plates. Acetylthiocholine was used as substrate at a concentration of 1.0 mM, which is optimal for AChE, but suboptimal for BuChE. The assay was performed in 0.05M Na/K phosphate buffer, pH 7.0 at 25° C., containing 3 mM 5,5'-dithio-bis-(2-nitrobenzoate), in a total volume of 100 μL. The rate of hydrolysis of acetylthiocholine was monitored by measurement of absorbances at 410 nm, using a Titertek multiscan microplate reader. A calibration curve was constructed using purified electric eel AChE (Sigma). AChE and BuChE activities were distinguished by use of the specific AChE inhibitor 1,5-bis-(-4-allyldimethylammoniumphenyl)pentan-3-one dibromide (BW 284c51) (1.5 μM).

Compound: C=CC[N+](C)(C)c1ccc(CCC(=O)CCc2ccc([N+](C)(C)CC=C)cc2)cc1 [BW 284c51, 1,5-bis-(-4-allyldimethylammoniumphenyl)pentan-3-one dibromide]
- inhibition of cholinesterase activity of ocular fluid: Most of this activity was inhibited
